# In patent publication US20230083973A1, “SUBSTITUTED CYCLOPROPYL-2,2'-BIP[…], ANALOGUES THEREOF, AND METHODS USING SAME” (priority 2019, published 2023):
# Where two headings read alike, the source gives them in different places.
# Test system: HBsAg
# Assay: HBsAg assay: inhibition of HBsAg in HepG2.2.15 cells (chemiluminescence immunoassay of supernatant)
# Format: cell-based, hepatitis B virus
# Details: HBsAg in supernatant at day 6 after exposure to compound, 0.5% DMSO
# Method: Inhibition of HBsAg was determined in HepG2.2.15 cells. Cells were maintained in culture medium containing 10% fetal calf serum, […], Glutamine, penicillin/streptomycin. Cells were seeded in 96-well collagen-coated plate at a density of 30,000 cells/well. Serially diluted compounds were added to cells next day at the final DMSO concentration of 0.5%. Cells were incubated with compounds for 2-3 days, after which medium was removed. Fresh medium containing compounds was added to cells for additional 3-4 days. At day 6 after exposure of compounds, supernatant was collected, the HBsAg immunoassay (microplate-based chemiluminescence immunoassay kits, CLIA, Autobio Diagnosics Co., Zhengzhou, China, Catalog # CL0310-2) was used to determine the level of HBsAg according to manufactory instruction. Dose-response curves were generated and the EC50 value (effective concentrations that achieved 50% inhibitory effect) were determined using XLfit software. In addition, cells were seeded at a density of 5,000 cells/well for determination of cell viability in the presence and absence of compounds by using CellTiter-Glo reagent (Promega).
# Table 1 illustrates EC50 values obtained by the HBsAg assay for selected compounds.
# [1] = read-out: sAg EC50, HepG2.2.15 cells
# [2] = Hepatitis B virus, HepG2.2.15, 144 h, read-out: sAg EC50, HepG2.2.15 cells
SMILES,EC50 [1] [nM],EC50 [2] [nM]
"Fc1cc(C2CC2c2cnc(-c3ncccn3)nc2)cc(N2CC3(CCOCC3)C2)c1F (single isomer, unassigned) [Example 136, trans-2-(5-(2-([2,2′-Bipyrimidin]-5-yl)cyclopropyl)-2,3-difluorophenyl)-7-oxa-2-azaspiro[3.5]nonane]",920,
"COc1ccc(C2CC2c2cnc(-c3ncccn3)nc2)cc1OC (single isomer, unassigned) [Example 32, trans-5-(2-(3,4-Dimethoxyphenyl)cyclopropyl)-2,2′-bipyrimidine]",480,
"Fc1ccc(C2CC2c2cnc(-c3ncccn3)nc2)cc1OC(F)(F)F (single isomer, unassigned) [Example 40, trans-5-(2-(4-Fluoro-3-(trifluoromethoxy)phenyl)cyclopropyl)-2,2′-bipyrimidine]",110,
"Cc1cc(C2CC2c2cnc(-c3ncccn3)nc2)cc(OCC2CC2)c1Cl (single isomer, unassigned) [Example 49, trans-5-((2-(4-Chloro-3-(cyclopropylmethoxy)-5-methylphenyl)cyclopropyl)-2,2′-bipyrimidine]",170,
"Fc1cc(C2CC2c2cnc(-c3ncccn3)nc2)cc(F)c1F (single isomer, unassigned) [Example 161, trans-5-(2-(3,4,5-Trifluorophenyl)cyclopropyl)-2,2′-bipyrimidine]",10000,
"Fc1ccc(C2CC2c2cnc(-c3ncccn3)nc2)cc1OCC1CC1 (single isomer, unassigned) [Example 26, trans-5-(2-(3-(Cyclopropylmethoxy)-4-fluorophenyl)cyclopropyl)-2,2′-bipyrimidine]",29,
"CC(=O)Nc1cc(C2CC2c2cnc(-c3ncccn3)nc2)ccc1Cl (single isomer, unassigned) [Example 205, trans-N-(5-(2-([2,2′-Bipyrimidin]-5-yl)cyclopropyl)-2-chlorophenyl)acetamide]",,510
"Oc1cnn(-c2cc(C3CC3c3cnc(-c4ncccn4)nc3)cc(F)c2F)c1 (single isomer, unassigned) [Example 260, trans-1-(5-(2-([2,2′-Bipyrimidin]-5-yl)cyclopropyl)-2,3-difluorophenyl)-1H-pyrazol-4-ol]",670,
"Cc1cc(C2CC2c2cnc(-c3ncccn3)nc2)cc(OCC2CC2)c1Cl (single isomer, unassigned) [Example 50, trans-5-((2-(4-Chloro-3-(cyclopropylmethoxy)-5-methylphenyl)cyclopropyl)-2,2′-bipyrimidine]",2000,
"CNC(=O)c1cc(C2CC2c2cnc(-c3ncccn3)nc2)ccc1Cl (single isomer, unassigned) [Example 202, trans-5-(2-([2,2′-Bipyrimidin]-5-yl)cyclopropyl)-2-chloro-N-methylbenzamide]",4000,
"COc1cc(C2CC2c2cnc(-c3ncccn3)nc2)ccc1F (single isomer, unassigned) [Example 11, trans-5-(2-(4-Fluoro-3-methoxyphenyl)cyclopropyl)-2,2′-bipyrimidine]",730,
"COCCCn1cc2c(F)cc(C3CC3c3cnc(-c4ncccn4)nc3)cc2n1 (single isomer, unassigned) [Example 269, trans-6-(2-([2,2′-Bipyrimidin]-5-yl)cyclopropyl)-4-fluoro-2-(3-methoxypropyl)-2H-indazole]",46,
"CO[C@H]1CCN(c2cc(C3CC3c3cnc(-c4ncccn4)nc3)cc(F)c2F)C1 (single isomer, unassigned) [Example 103]",8,
"COc1cc(C2CC2c2cnc(-c3ncccn3)nc2)cc(C)c1F (single isomer, unassigned) [Example 151, trans-5-(2-(4-Fluoro-3-methoxy-5-methylphenyl)cyclopropyl)-2,2′-bipyrimidine]",81,
"Fc1ccc(C2CC2c2cnc(-c3ncccn3)nc2)cc1OCC(F)F (single isomer, unassigned) [Example 27, trans-5-(2-(3-(2,2-Difluoroethoxy)-4-fluorophenyl)cyclopropyl)-2,2′-bipyrimidine]",630,
"COc1ccc([C@@H]2C[C@H]2c2cnc(-c3ncccn3)nc2)c2cccnc12 (relative stereo) [Example 173, trans-5-(2-([2,2′-Bipyrimidin]-5-yl)cyclopropyl)-8-methoxyquinoline]",,540
"Fc1cc(C2CC2c2cnc(-c3ncccn3)nc2)cc(O[C@H]2CCOC2)c1F (single isomer, unassigned) [Example 250]",76,
"Fc1ccc(C2CC2c2cnc(-c3ncccn3)nc2)cc1N1CCCCC1 (single isomer, unassigned) [Example 195, trans-5-(2-(4-Fluoro-3-(piperidin-1-yl)phenyl)cyclopropyl)-2,2′-bipyrimidine]",3000,
"OCc1cnn(-c2cc([C@@H]3C[C@H]3c3cnc(-c4ncccn4)nc3)cc(F)c2F)c1 (relative stereo) [Example 234, trans-(1-(5-(2-([2,2′-Bipyrimidin]-5-yl)cyclopropyl)-2,3-difluorophenyl)-1H-pyrazol-4-yl)methanol]",,140
"Fc1cc([C@@H]2C[C@H]2c2cnc(-c3ncccn3)nc2)cc(F)c1OC1CC2(COC2)C1 (relative stereo) [Example 242, trans-5-(2-(4-((2-Oxaspiro[3.3]heptan-6-yl)oxy)-3,5-difluorophenyl)cyclopropyl)-2,2′-bipyrimidine]",,390
"COc1cc(C2CC2c2cnc(-c3ncccn3)nc2C2CCCCC2)ccc1F (single isomer, unassigned) [Example 79, trans-4-Cyclohexyl-5-(2-(4-fluoro-3-methoxyphenyl)cyclopropyl)-2,2′-bipyrimidine]",220,
"COCCCn1ncc2c(C3CC3c3cnc(-c4ncccn4)nc3)cc(F)c(F)c21 (single isomer, unassigned) [Example 266, trans-4-(2-([2,2′-Bipyrimidin]-5-yl)cyclopropyl)-6,7-difluoro-1-(3-methoxypropyl)-1H-indazole]",2,
"Fc1cc(C2CC2c2cnc(-c3ncccn3)nc2)cc(OC2CCCC2)c1F (single isomer, unassigned) [Example 245, trans-5-(2-(3-(Cyclopentyloxy)-4,5-difluorophenyl)cyclopropyl)-2,2′-bipyrimidine]",5000,
"CO[C@H]1CCN(c2cc(C3CC3c3cnc(-c4ncccn4)nc3)ccc2F)C1 (single isomer, unassigned) [Example 67]",180,
"CN1CC[C@H](Nc2cc(C3CC3c3cnc(-c4ncccn4)nc3)cc(F)c2F)C1 (single isomer, unassigned) [Example 229]",3000,
"CC1(C)CN(c2cc(C3CC3c3cnc(-c4ncccn4)nc3)cc(F)c2F)C1 (single isomer, unassigned) [Example 138, trans-5-(2-(3-(3,3-Dimethylazetidin-1-yl)-4,5-difluorophenyl)cyclopropyl)-2,2′-bipyrimidine]",1000,
"COc1cc(C2CC2c2cnc(-c3ncccn3)nc2)cc(F)c1Cl (single isomer, unassigned) [Example 45, trans-5-(2-(4-Chloro-3-fluoro-5-methoxyphenyl)cyclopropyl)-2,2′-bipyrimidine]",270,
"CC(C)(C)S(=O)(=O)C1CN(c2cc([C@@H]3C[C@H]3c3cnc(-c4ncccn4)nc3)cc(F)c2F)C1 (relative stereo) [Example 211, trans-5-(2-(3-(3-(tert-Butylsulfonyl)azetidin-1-yl)-4,5-difluorophenyl)cyclopropyl)-2,2′-bipyrimidine]",,110
